Consider 16 molecules from ChEMBL document CHEMBL1154516, “Highly efficacious factor Xa inhibitors containing alpha-substituted phenylcycloalkyl P4 moieties” (Bioorg Med Chem Lett, 2009).

The nature of data set [1]: in vivo. The settings on record: dog, iv, 0.5 mg/kg.
A short description of data set [2]: in vitro. The settings on record: human, liver microsomes.
A short description of data set [3]: in vivo. The settings on record: dog, iv, 0.5 mg/kg. This is another data set of the same source.
A short description of data set [4]: in vivo. The settings on record: dog, po, 0.2 mg/kg.
The nature of data set [5]: in vitro. The settings on record: dog, liver microsomes. On the technique in general: Liver microsomes are vesicles of endoplasmic reticulum, rich in cytochrome P450 enzymes.
The nature of data set [6]: in vivo. The settings on record: dog, po, 0.2 mg/kg. This is another data set of the same source.
A short description of the next data set: physchem. The settings on record: octanol/water.
Another data set is filed under the species Canis familiaris. The settings on record: dog, in vivo, po, 0.2 mg/kg.

Take `COc1ccc(-n2nc(S(C)(=O)=O)c3c2C(=O)N(c2ccc(C4(Cn5ccnc5C)CC4)cc2)CC3)cc1.O=C(O)C(F)(F)F`: the clearance in “in vivo [1]” is 70 mL/min/kg. Also, the half-life in “in vitro [2]” came out at 0.0833 h. The same molecule displayed a Vd in the data set “in vivo [3]” of 4 L/kg. This molecule registered a bioavailability in the data set “in vivo [4]” of 0.2%.

In the case of `COc1ccc(-n2nc(C(N)=O)c3c2C(=O)N(c2ccc(C4(CN5CCCC5)CC4)cc2)CC3)cc1.O=C(O)C(F)(F)F`, in the data set “in vivo [1]”, the clearance is 28.3 mL/min/kg. For the same molecule, the results for the half-life in “in vitro [2]”, in “in vitro [5]” and in the data set “in vivo [6]” were over 3.33 h, 1 h and 4 h, respectively. The distribution volume (Vd) in “in vivo [3]” worked out at 7.1 L/kg. The same molecule came in with a bioavailability in “in vivo [4]” of 6%.

Consider `COc1ccc(N2N=C(S(C)(=O)=O)C3CCN(c4ccc(C5(CN6CCCC6)CC5)cc4)C(=O)C32)cc1.O=C(O)C(F)(F)F` (centres undefined), for which, in the data set “in vivo [1]”, the clearance was 55 mL/min/kg. Moreover, the half-life is 0.617 h in “in vitro [2]” and 2.3 h in “in vivo [6]”. The volume of distribution (Vd) in the data set “in vivo [3]” was 7.7 L/kg. For the same molecule, in the data set “in vivo [4]”, the bioavailability came to 100%.

`COc1ccc(-n2nc(C(N)=O)c3c2C(=O)N(c2ccc(C4(CN5CCOCC5)CC4)cc2)CC3)cc1` returned a logP in the data set “physchem” of 3.3.

On to `COc1ccc(-n2nc(C#N)c3c2C(=O)N(c2ccc(C4(CN5CCOCC5)CC4)cc2)CC3)cc1`, for which the log partition coefficient (logP) in the data set “physchem” is 4.

Molecule `CNCC1(c2ccc(N3CCc4c(C(F)(F)F)nn(-c5ccc(OC)cc5)c4C3=O)cc2)CC1` showed a logP in “physchem” of 3.2.

`COc1ccc(-n2nc(C(F)(F)F)c3c2C(=O)N(c2ccc(C4(CN5CCCC5)CC4)cc2)CC3)cc1` showed a logP in the data set “physchem” of 3.4.

In turn, `COc1ccc(-n2nc(C(F)(F)F)c3c2C(=O)N(c2ccc(C4(CN(C)C)CC4)cc2)CC3)cc1` displayed a logP in the data set “physchem” of 3.4.

In turn, `CNC1(c2ccc(N3CCc4c(C(N)=O)nn(-c5ccc(OC)cc5)c4C3=O)cc2)CC1.O=C(O)C(F)(F)F` gave a clearance in the data set “in vivo [1]” of 30 mL/min/kg. The half-life in “in vitro [2]” was 2.43 h; in “in vitro [5]” it was 0.6 h; in the data set “in vivo [6]” it was 1.6 h. For the same molecule, the Vd in the data set “in vivo [3]” was 4.4 L/kg. This molecule displayed a bioavailability in the data set “in vivo [4]” of 15%.

As to `COc1ccc(-n2nc(C(N)=O)c3c2C(=O)N(c2ccc(C4(CC(N)=O)CC4)cc2)CC3)cc1.O=C(O)C(F)(F)F`, in the data set “in vivo [1]”, the clearance was 8.17 mL/min/kg. Moreover, the figures for the half-life in the data set “in vitro [2]”, in the data set “in vitro [5]” and in “in vivo [6]” were 1.62 h, 1.65 h and 1.9 h, respectively. The molecule further showed a Vd in the data set “in vivo [3]” of 0.65 L/kg. In addition, the bioavailability in “in vivo [4]” is 27%.

`COc1ccc(-n2nc(C(N)=O)c3c2C(=O)N(c2ccc(C4(N(C)CCO)CC4)cc2)CC3)cc1.O=C(O)C(F)(F)F`: in the data set “in vivo [1]”, the clearance was 20 mL/min/kg. Moreover, the results for the half-life in the data set “in vitro [2]”, in the data set “in vitro [5]” and in “in vivo [6]” were 0.783 h, 3 h and 4.3 h, respectively. The molecule further yielded a Vd in the data set “in vivo [3]” of 4.1 L/kg. In the data set “in vivo [4]”, the bioavailability stood at 67%.

As to `COc1ccc(-n2nc(S(C)(=O)=O)c3c2C(=O)N(c2ccc(C4(CN5CCOCC5)CC4)cc2)CC3)cc1.O=C(O)C(F)(F)F`, the clearance in the data set “in vivo [1]” is 13.3 mL/min/kg. Further, the half-life in the data set “in vitro [2]” was 0.417 h; in “in vivo [6]” it was 4 h. This molecule also came in with a Vd in “in vivo [3]” of 1.9 L/kg. In “in vivo [4]”, this molecule yielded a bioavailability of 61%.

As for `COc1ccc(-n2nc(C(N)=O)c3c2C(=O)N(c2ccc(C4(CN5CCCC5=O)CC4)cc2)CC3)cc1.O=C(O)C(F)(F)F`, in “in vivo [1]”, the clearance was 4.17 mL/min/kg. Moreover, the half-life in “in vitro [2]” was 0.167 h; in the data set “in vitro [5]”, 0.183 h; in “in vivo [6]” it was 0.99 h. Besides, the volume of distribution (Vd) in the data set “in vivo [3]” is 0.2 L/kg. The bioavailability in “in vivo [4]” was 3.1%.

On to `COc1ccc(-n2nc(C#N)c3c2C(=O)N(c2ccc(C4(CN(C)C)CC4)cc2)CC3)cc1.O=C(O)C(F)(F)F`, for which, in the data set “in vivo [1]”, the clearance was 22.8 mL/min/kg. Further, the half-life in the data set “in vitro [2]” was 2.97 h; in “in vitro [5]” it was 1.22 h; in the data set “in vivo [6]”, 6.4 h. The Vd in “in vivo [3]” was 11.7 L/kg. Further, the bioavailability in “in vivo [4]” turned out to be 41%. This molecule registered a logP in the data set “physchem” of 2.5.

For `COc1ccc(-n2nc(C(N)=O)c3c2C(=O)N(c2ccc(N4CCCCC4=O)cc2)CC3)cc1` [APIXABAN], the clearance in the data set “in vivo [1]” was 0.333 mL/min/kg. In the data set “in vivo [3]”, this molecule showed a Vd of 0.2 L/kg.

`CN(C)Cc1nccn1-c1ccc(NC(=O)c2cc(C(F)(F)F)nn2-c2ccc3onc(N)c3c2)c(F)c1` [RAZAXABAN]: the t1/2 in the data set filed under Canis familiaris was found to be 3.4 h.

By clearance is commonly meant the volume of plasma or blood freed of the substance per unit of time. Higher therefore signals a high capacity for elimination. The term half-life denotes the time in which the quantity being followed falls by half. Broadly, the Vd is a proportionality between amount in the body and measured concentration, not a real space. A word on the bioavailability: it is dose-corrected exposure relative to a reference, in per cent. By logP is commonly meant the decadic logarithm of the partition coefficient of the neutral form, usually between octanol and water. The low end stands for lower lipophilicity, the high end for higher lipophilicity.
